Source: US20260115177A1, “MEDICINAL PRODUCTS AND METHODS FOR THE ALLEVIATION OF CANCER IMMUNOTHERA-PY-ASSOCIATED CYTOKINE RELEASE SYNDROME” (POOLBEG PHARMA (UK) LIMITED, priority 2023, published 2026)

Experiments:
[1] = tested on: PBMC humanized NSG-MHC I/II double knock-out mice with Raji-Luc CD19-expressing cancer cells; experiment: In vivo (murine) model using anti-CD28 antibody for CRS induction; set-up: species or system mouse
Text: An outline of the timeline of the model is provided in FIG. 19; it commences on Study Day 0 and ends on Study Day 10. […] It thus models the effect of administering a p38 MAP kinase inhibitor prior to the onset of CRS in accordance with the present disclosure.
Anti-CD28 antibody acts as a super-agonist of T cells (i.e., strongly activates T cells) resulting in T cell-mediated tumour cell death, with a rapid consequent release of cytokines and knock-on effects for monocytes and endothelial cells; thus modelling CRS induced by various different types of T cell-involving cancer immunotherapy.
Thus, on Study Day 0, 30 female 6- to 8-week-old NSG-(KbDb)null (IA)null mice are irradiated at 100 cGy. Approximately 4 hours later, on the same day (Study Day 0) all mice are humanised by IV dosing with 15×10^6 human peripheral blood mononuclear cells (PBMCs).
On Study Day 5, all mice are intravenously dosed with 0.25×10^6 Raji-Luc CD19-expressing cancer cells (a Raji wild-type cell line with stable and high expression of luciferase, enabling detection of cancer burden by […]). Approximately 4 hours later, mice are imaged using in vivo […] imaging (IVIS). For IVIS, mice are IP injected with 150 mg/kg D-Luciferin. 10 minutes after the D-Luciferin injection, mice are imaged dorsal and ventral; auto exposure) using an IVIS Lumina system (obtainable from PerkinElmer of Chalfont Road. Seer Green, Beaconsfield, HP9 2FX, UK). Regions of interest (ROI) are drawn for each mouse to capture its whole body, and total flux (p/s) is reported. Tumour burden continues to be monitored by IVIS twice per week, starting on Study Day 5, until the end of the study. Daily clinical observation continues throughout the study, including observation of CRS, CRS being scored as follows:
On Study Day 6, 25 of the 30 mice are treated with 1 mg/kg anti-CD28.
As a control, a group consisting of the 5 remaining mice (“Group 1”) are not administered anti-CD28. Beginning on Study Day 4 and ending on Study Day 10, Group 1 receive treatment with 0.5% (w:v) HPMC, 0.1% (w:v) Tween 80 in sWFI (vehicle/control), administered BID at 5 mL/kg.
The 25 mice administered anti-CD28 are divided into groups of 5 mice per group. Administration of a control drug (Humira), vehicle or UR-13870 is carried out in accordance with the following protocol: • Group 2—Vehicle only, BID, beginning on Study Day 4 and ending on Study Day 10; • Group 3—UR-13870 (formulated in vehicle), 2 mg/kg, twice daily (BID) beginning on Study Day 4 and ending on Study Day 10; • Group 4—UR-13870 (formulated in vehicle), 10 mg/kg, twice daily (BID) beginning on Study Day 4 and ending on Study Day 10; • Group 5—UR-13870 (formulated in vehicle), 25 mg/kg, twice daily (BID) beginning on Study Day 4 and ending on Study Day 10; and • Group 6—Humira (formulated in PBS) (further, positive control) 5 mg/kg, once daily beginning on Study Day 4 and ending on Study Day 10.
Dosing of UR-13870 or vehicle is by subcutaneous injection. Subcutaneous injection sites are rotated for each dose (rotating among right flank, left flank, right inguinal region, left inguinal region). For UR-13870 and vehicle, AM and PM (BID) doses are scheduled at least 6 hours apart. Dosing of Humira is by intraperitoneal injection.
On Study Days 6, 9 and 10, blood is collected from each of the 30 mice in Groups 1-6 (a 50-200 μl blood sample from each mouse, each time), for flow cytometry analysis, including analysis of CD19+ cancer cells per ml; and cytokine measurement. It should be noted that, where relevant to BID dosed groups, blood collection is carried out between AM and PM dosing.
All mice in Groups 1-6 are euthanized by CO2 asphyxiation on Study Day 10. […]

HUVEC endothelial cells [2] = experiment: IL-6 and IL-8 ELISA of HUVEC endothelial cells treated with sCAR; type: cell-based, human; conditions: sCAR stimulation, 24 hours; concentrations of Table 2
Description: (§1) In like manner and also in Example 3 below, sCAR (or smCAR) is added to endothelial (HUVEC) cells, available from the American Type Culture Collection, and using an equivalent protocol to the treatment of THP-1 cells (but with individually optimised conditions, such as the concentration of sCAR used), following which IL-6 release and IL-8 release are observed. Pro-inflammatory cytokines IL-6 and IL-8 are measured using an enzyme-linked immunosorbent assay (ELISA) and IL-6, ICAM1 and VCAM1 are measured by quantitative PCR (QPCR, for which a kit is suitably obtainable from Thermo Fisher Scientific of Kingfisher Dr, Swindon SN3 5BZ, UK).
(§2) sCAR (or smCAR), produced as described in Example 1 above, is added to a monoculture of HUVEC endothelial cells in the presence of UR-13870, Ralimetinib or Acumapimod at each of the concentrations shown in Table 2 above, at 37° C., 5% CO2 and a suitably humid environment for 24 hours.
Supernatant levels of IL-6 and IL-8 from the HUVEC endothelial cell monoculture with sCAR (or smCAR) are determined by ELISA.

HUVEC endothelial cells [3] = experiment: QPCR of VCAM1, ICAM1 and IL-6 in HUVEC cells treated with sCAR; type: cell-based, human; conditions: 24 hours
Description: as §1, §2

OCCCn1cc2c(-c3ccc(F)cc3)c(-c3ccncc3)c(-c3ccc(F)cc3)nc2n1 [UR-13870, 6-bis(4-fluorophenyl)-5-(4-pyridinyl)-2Hpyrazolo[3,4-b]pyridine-2-propanol]
tumour cell proliferation (tumour burden by IVIS) ([1]; Day 5 to Day 7): does not increase | T cell mediated cancer cell death ([1]; Day 5 to Day 7, tumour burden by IVIS): maintains | CRS scores ([1]; anti-CD28 1 mg/kg, UR-13870 2, 10, 25 mg/kg BID s.c., Humira 5 mg/kg once daily i.p., Study Day 4 to 10): significantly reduces | IFNγ ([1]; blood serum, Luminex): reduced | IL-2 ([1]; blood serum, Luminex): reduced | IL-4 ([1]; blood serum, Luminex): reduced | IL-6 ([1]; blood serum, Luminex): reduced | IL-8 ([1]; blood serum, Luminex): reduced | IL-10 ([1]; blood serum, Luminex): reduced | MIP-1α ([1]; blood serum, Luminex): reduced | TNF a ([1]; blood serum, Luminex): reduced | hCD45+ CD3+ hCD4+ cells/μl ([1]; blood, day 9): Neither UR-13870 or Humira had a significant impact | hCD45+ cells/μl ([1]; blood, days 9 and 10): Neither UR-13870 or Humira had a significant impact | hCD45+ hCD3+ cells/μl ([1]; blood, days 9 and 10): Neither UR-13870 or Humira had a significant impact | proliferation of tumour cells (counts of CD19+ cancer cells per ml) ([1]; blood, flow cytometry): neither UR-13870 or Humira increased proliferation of tumour cells | mean CD19+ cancer cells per ml compared to CD28 stimulation only ([1]; days 9 and 10 (especially day 10)): downward trend | IL-6 secretion by HUVEC cells (HUVEC endothelial cells [2]): significantly reduce | IL-8 supernatant level, HUVEC cells (HUVEC endothelial cells [2]): reduced | ICAM1 mRNA levels (HUVEC endothelial cells [3]): significantly reduce | IL-6 mRNA levels (HUVEC endothelial cells [3]): significantly reduce | VCAM1 mRNA levels (HUVEC endothelial cells [3]): reduced, albeit non-significantly
